Assay results taken from PubChem BioAssay AID248 (DTP/NCI, 2004).
Toxic doses and inconclusive results are not listed. No stated cut-off is given here; in the data, active means T/C of 150% or more; inactive means T/C below 125%.

System: L1210 leukemia ip in BDF1 mice, survival T/C
Assay: NCI In Vivo Anticancer Drug Screen. Data for tumor model L1210 Leukemia (intraperitoneal) in B6D2F1 (BDF1) mice
Conditions: endpoint: mean survival time, higher = longer survival
Procedure, shortened: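 In this screen, tumor-bearing mice given compound are compared to those given vehicle, and their survival values are reported as a treated-to-control quotient.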

[1] = dose: 100.0 mg/kg/injection, schedule: Q01DX001 (ip), vehicle: saline
[2] = dose: 200.0 mg/kg/injection, schedule: Q01DX001 (ip), vehicle: saline
[3] = dose: 400.0 mg/kg/injection, schedule: Q01DX001 (ip), vehicle: saline
[4] = dose: 100.0 mg/kg/injection, schedule: Q01DX001 (ip), vehicle: other
[5] = dose: 100.0 mg/kg/injection, schedule: Q04DX003 (ip), vehicle: saline with Tween-80
[6] = dose: 200.0 mg/kg/injection, schedule: Q01DX001 (ip), vehicle: other
[7] = dose: 200.0 mg/kg/injection, schedule: Q04DX003 (ip), vehicle: saline with Tween-80
[8] = dose: 400.0 mg/kg/injection, schedule: Q01DX001 (ip), vehicle: other
[9] = dose: 400.0 mg/kg/injection, schedule: Q04DX003 (ip), vehicle: saline with Tween-80
[10] = dose: 100.0 mg/kg/injection, schedule: Q01DX009 (ip), vehicle: Klucel (hydroxypropylcellulose) (HPC)
[11] = dose: 100.0 mg/kg/injection, schedule: Q04DX003 (ip), vehicle: Klucel (hydroxypropylcellulose) (HPC)
[12] = dose: 200.0 mg/kg/injection, schedule: Q01DX009 (ip), vehicle: Klucel (hydroxypropylcellulose) (HPC)
[13] = dose: 200.0 mg/kg/injection, schedule: Q04DX003 (ip), vehicle: Klucel (hydroxypropylcellulose) (HPC)
[14] = dose: 400.0 mg/kg/injection, schedule: Q01DX009 (ip), vehicle: Klucel (hydroxypropylcellulose) (HPC)
[15] = dose: 400.0 mg/kg/injection, schedule: Q04DX003 (ip), vehicle: Klucel (hydroxypropylcellulose) (HPC)
[16] = dose: 100.0 mg/kg/injection, schedule: Q01DX001 (ip), vehicle: Klucel (hydroxypropylcellulose) (HPC)
[17] = dose: 200.0 mg/kg/injection, schedule: Q01DX001 (ip), vehicle: Klucel (hydroxypropylcellulose) (HPC)
[18] = dose: 400.0 mg/kg/injection, schedule: Q01DX001 (ip), vehicle: Klucel (hydroxypropylcellulose) (HPC)

Measured: T/C

CC#CC#C/C=C1/C=CC(=O)O1
inactive: dose: 6.25 mg/kg/injection, schedule: Q01DX009 (ip), vehicle: saline 98 % of control | dose: 6.25 mg/kg/injection, schedule: Q04DX003 (ip), vehicle: saline 96 % of control | dose: 12.5 mg/kg/injection, schedule: Q01DX009 (ip), vehicle: saline 105 % of control | dose: 12.5 mg/kg/injection, schedule: Q04DX003 (ip), vehicle: saline 103 % of control | dose: 25.0 mg/kg/injection, schedule: Q01DX009 (ip), vehicle: saline 94 % of control | dose: 25.0 mg/kg/injection, schedule: Q04DX003 (ip), vehicle: saline 91 % of control

Cc1cc(/C=C\[N+](=O)[O-])c(C)c2c1oc1ccccc12
inactive: [1] 88 % of control | [2] 96 % of control | [3] 88 % of control

CC(=O)OCC1OC(C(N)=O)C(OC(C)=O)C1OC(C)=O (stereo not given)
inactive: [4] 102 % of control | [5] 93 % of control | [6] 98 % of control | [7] 104 % of control | [8] 98 % of control | [9] 98 % of control

Cn1nc(C#N)c(C#N)c1NC(=O)C(C)(C)C
inactive: dose: 50.0 mg/kg/injection, schedule: Q04DX002 (ip), vehicle: saline with Tween-80 92 % of control | dose: 100.0 mg/kg/injection, schedule: Q04DX002 (ip), vehicle: saline with Tween-80 103 % of control | dose: 200.0 mg/kg/injection, schedule: Q04DX002 (ip), vehicle: saline with Tween-80 106 % of control

C[n+]1c(/C=C\C=C\N2CCCCC2)sc2ccccc21
inactive: dose: 1.25 mg/kg/injection, schedule: Q04DX002 (ip), vehicle: saline with Tween-80 97 % of control | dose: 2.5 mg/kg/injection, schedule: Q04DX002 (ip), vehicle: saline with Tween-80 108 % of control

c1ccc(CNCCOB(OCCNCc2ccccc2)OCCNCc2ccccc2)cc1
inactive: [10] 94 % of control | [11] 98 % of control | [12] 94 % of control | [13] 111 % of control | [14] 97 % of control | [15] 95 % of control

CCOC(=O)Cc1c(C(=O)OCC)[nH]c(C)c1C(C)=O
inactive: [16] 104 % of control | [17] 95 % of control | [18] 95 % of control

O=[N+]([O-])c1cccc(/C=N/n2cn[nH]c2=S)c1
inactive: [11] 94 % of control | [13] 94 % of control | [15] 96 % of control

Cc1cc(S(=O)(=O)O)cc(N)c1N
inactive: [16] 105 % of control | [17] 98 % of control | [18] 91 % of control

Cc1nc2ccc(Cl)cc2c(=O)[nH]1
inactive: [4] 102 % of control | dose: 100.0 mg/kg/injection, schedule: Q04DX003 (ip), vehicle: other 96 % of control | [6] 96 % of control | dose: 200.0 mg/kg/injection, schedule: Q04DX003 (ip), vehicle: other 96 % of control | [8] 104 % of control | dose: 400.0 mg/kg/injection, schedule: Q04DX003 (ip), vehicle: other 96 % of control

CCCCCCCCCCCC(=O)NC(=S)Nc1ccc(C)c(Cl)c1
inactive: [11] 89 % of control | [13] 95 % of control | [15] 90 % of control

CCCCCCCCCC[P+](=O)CCCCCCCCCC
inactive: dose: 25.0 mg/kg/injection, schedule: Q04DX003 (ip), vehicle: saline with Tween-80 92 % of control | dose: 50.0 mg/kg/injection, schedule: Q04DX003 (ip), vehicle: saline with Tween-80 89 % of control | [7] 89 % of control | [9] 89 % of control

CCCNC(=O)C1C2C=CC(CC2)C1C(=O)NCCC (stereo not given)
inactive: [5] 92 % of control | [7] 100 % of control | [9] 96 % of control

CC(=O)c1ccc(O)c(CN(C2CCCCC2)C2CCCCC2)c1O
inactive: [1] 100 % of control | [2] 93 % of control | [3] 93 % of control

Nc1nc2c(ncn2C2OC(COP(=O)(O)OC3C(COP(=O)(O)O)OC(n4cnc5c(=O)[nH]c(N)nc54)C3O)C(O)C2O)c(=O)[nH]1 (stereo not given) (tested in a mixture with another compound)
inactive: dose: 2.5 mg/kg/injection, schedule: Q01DX009 (ip), vehicle: other 108 % of control | dose: 5.0 mg/kg/injection, schedule: Q01DX009 (ip), vehicle: other 105 % of control | dose: 10.0 mg/kg/injection, schedule: Q01DX009 (ip), vehicle: other 111 % of control

CC(=O)COc1cccc([N+](=O)[O-])c1
inactive: [10] 92 % of control | [12] 90 % of control | [14] 90 % of control

CN1C(CSCC(F)(F)F)Nc2cc(Cl)c(S(N)(=O)=O)cc2S1(=O)=O (stereo not given)
inactive: dose: 100.0 mg/kg/injection, schedule: Q01DX001 (ip), vehicle: carboxymethylcellulose (CMC) 108 % of control | dose: 200.0 mg/kg/injection, schedule: Q01DX001 (ip), vehicle: carboxymethylcellulose (CMC) 106 % of control | dose: 400.0 mg/kg/injection, schedule: Q01DX001 (ip), vehicle: carboxymethylcellulose (CMC) 103 % of control

O=C(O)c1ccc(NC(C(=O)c2ccccc2)c2ccccc2)cc1 (stereo not given)
inactive: dose: 50.0 mg/kg/injection, schedule: Q01DX001 (ip), vehicle: Klucel (hydroxypropylcellulose) (HPC) 96 % of control | [16] 107 % of control | [17] 94 % of control

CCCCCCCCCCCCCCCCC(C(=O)OC)S(=O)(=O)O (stereo not given)
inactive: dose: 100.0 mg/kg/injection, schedule: Q04DX002 (ip), vehicle: saline 102 % of control | dose: 200.0 mg/kg/injection, schedule: Q04DX002 (ip), vehicle: saline 124 % of control | dose: 400.0 mg/kg/injection, schedule: Q04DX002 (ip), vehicle: saline 102 % of control

CCCC(=O)OCC1CO1 (stereo not given)
inactive: [16] 100 % of control | [11] 104 % of control | [17] 104 % of control | [13] 98 % of control | [18] 102 % of control | [15] 106 % of control

O=C1c2ccccc2C(=O)N1CNc1ccc(Cc2ccc(NCN3C(=O)c4ccccc4C3=O)c(Cl)c2)cc1Cl
inactive: dose: 100.0 mg/kg/injection, schedule: Q01DX009 (ip), vehicle: saline with Tween-80 92 % of control | dose: 100.0 mg/kg/injection, schedule: Q04DX003 (ip), vehicle: saline 101 % of control | dose: 200.0 mg/kg/injection, schedule: Q01DX009 (ip), vehicle: saline with Tween-80 92 % of control | dose: 200.0 mg/kg/injection, schedule: Q04DX003 (ip), vehicle: saline 96 % of control | dose: 400.0 mg/kg/injection, schedule: Q01DX009 (ip), vehicle: saline with Tween-80 92 % of control | dose: 400.0 mg/kg/injection, schedule: Q04DX003 (ip), vehicle: saline 96 % of control

Cn1nc(N)c2cc(C#N)c(N)nc21
inactive: [10] 90 % of control | [12] 90 % of control | [14] 95 % of control

O=S1(=O)CC(c2ccccc2)=NN=C(c2ccccc2)C1
inactive: [1] 92 % of control | [2] 86 % of control | [3] 92 % of control

O=C(Nc1cc(Cl)ccc1Cl)OCCCl
inactive: dose: 100.0 mg/kg/injection, schedule: Q04DX002 (ip), vehicle: Klucel (hydroxypropylcellulose) (HPC) 97 % of control | dose: 200.0 mg/kg/injection, schedule: Q04DX002 (ip), vehicle: Klucel (hydroxypropylcellulose) (HPC) 102 % of control | dose: 400.0 mg/kg/injection, schedule: Q04DX002 (ip), vehicle: Klucel (hydroxypropylcellulose) (HPC) 97 % of control
